In general, solubility refers to the concentration that dissolves in the medium under given conditions. A word on the melting point: it is the temperature, or range, at which the solid turns liquid.

The results in this text go back to patent publication US7205304B2, “Sulfonyl-Derivatives as novel inhibitors of histone deacetylase” (Janssen Pharmaceutica N.V., priority 2002, dated 2007).

Series [1] has as its system A2780 ovarian carcinoma cells. As to the kind of experiment: Antiproliferative activity on A2780 cells (MTT). The note with it: Homo sapiens, four days of incubation, read-out: Cellular activity pIC50 (converted). In kind it is cell-based, human. In short, it runs like this: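 A2780 ovarian carcinoma cells were seeded at 1500 cells/well and exposed to compound for four days, with DMSO ≤0.1%. Viability was measured by MTT (2 h, 37° C) and expressed as a percentage of untreated controls after blank subtraction. Initial single-point testing was at 10^−6 M, then full curves gave pIC50.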

Series [2] can be described thus: Kinetic solubility in aqueous media (nephelometry). In kind it is physicochemical. The note with it: phosphate citrate buffer, pH 7.4, aqueous buffer, kinetic from dmso stock, phosphate citrate buffer pH 7.4, turbidity of three dilution steps; read-out: Solubility Score. In short, it runs like this: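 DMSO stock (5 mM) diluted in three consecutive steps into phosphate citrate buffer pH 7.4, in triplicate; turbidity of each dilution read by nephelometry immediately after the last step. Compounds ranked into 3 classes: score 3 if first dilution clear, 2 if first unclear but second clear.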

Series [3] concerns A 2780 ovarium carcinoma cells. As to the kind of experiment: A2780 mouse xenograft model. It is filed as in vivo. The note with it: orally 10, 20 and 40 mpk once daily, day 4 to day 32; two independent studies; maximal inhibition once at 20 mpk, once at 40 mpk. On the procedure: Immunodeficient mice were injected subcutaneously with A 2780 ovarium carcinoma cells (10^7cells/200 μl/mouse). Subsequently they were orally treated with 10, 20 and 40 mpk of compound once daily between day 4 and day 32. The compound was dissolved in 0.9% NaCl, 20% β-cyclodextrine. On day 32 tumours were harvested and individual tumour weight of each mouse was determined. Each experiment included 10 mice.

Series [4] concerns the target histone deacetylase (HeLa nuclear extracts). As to the kind of experiment: In vitro assay for inhibition of histone deacetylase. The note with it: [3H]acetylated histone H4 peptide substrate. It is filed as biochemical.
Assay in series [5]: not given
The source holds these as a separate data set.

Values after ≈ are worked out from the molar mass of the structure shown. Like-named read-outs stand apart in the source and are kept apart here.

As to `COc1cc(N)c(Cl)cc1C(=O)NC1CCN(CCCOc2ccc(F)cc2)CC1OC` (stereo not shown) [Cisapride], the “% metabolism of the compound after 15 min of incubation” value (human, 15 min, 5 μM) came to 45%.

In the case of `O=C(NO)c1cnc(N2CCN(S(=O)(=O)c3ccc4ccccc4c3)CC2)nc1` [Compound 6], the IC50 in series [1] (96 h) is 46.1 nM. The solubility in series [2] fell in the range of 75.8 to 454 µM (≈ 31.3 to 188 µg/mL). Moreover, the “antitumoural effect (tumour weight on day 32)” value in series [3] was “strong antitumoural effect at all doses”.

Turning to `O=C(NO)c1ccc(N2CCN(S(=O)(=O)c3ccc4ccccc4c3)CC2)nn1` [Compound 120], the “Enzyme activity pIC50” value in series [4] worked out at 6.491. For the same molecule, in series [1] (A2780, 96 h), the IC50 was 1010 nM. Besides, the solubility in series [2] is under 75.8 µM. Moreover, the melting point in series [5] was over 260 °C.

In the case of `O=C(NO)c1cnc(N2CCN(S(=O)(=O)c3ccc4ccccc4c3)C(CO)C2)nc1` (stereo not shown) [Compound 121], the “Enzyme activity pIC50” value in series [4] was 6.833. For the same molecule, the IC50 in series [1] (A2780, 96 h) was 2770 nM. In series [2], the solubility is over 454 µM. The melting point in series [5] stood at 220 °C.

Regarding `CN(C)CC1CN(c2ncc(C(=O)NO)cn2)CCN1S(=O)(=O)c1ccc2ccccc2c1` (stereo not shown) [Compound 123], the “Enzyme activity pIC50” value in series [4] was found to be 6.787. For the same molecule, the IC50 in series [1] (A2780, 96 h) was 2580 nM. The solubility in series [2] is over 454 µM. In series [5], the melting point was found to be 114 °C.

As to `CN(C)Cc1ccccc1-c1ccc(S(=O)(=O)N2CCN(c3ncc(C(=O)NO)cn3)CC2)cc1` [Compound 126], in series [4], the “Enzyme activity pIC50” value worked out at 8.456. Besides, in series [1] (A2780, 96 h), the IC50 is 103 nM. The solubility in series [2] is under 75.8 µM. For the same molecule, the melting point in series [5] is 190.7 °C.

As for `O=C(NO)c1cnc(N2CCN(S(=O)(=O)c3ccc(-c4cccc(CCO)c4)cc3)CC2)nc1` [Compound 129], the “Enzyme activity pIC50” value in series [4] is on record as 7.107. Moreover, the IC50 in series [1] (A2780, 96 h) was 206 nM. In addition, the solubility in series [2] was over 454 µM. This molecule also yielded a melting point in series [5] of over 260 °C.

Turning to `CCCO` [propanol], the “% metabolism of the compound after 15 min of incubation” value (5 μM compound, microsomes 1 mg/ml, NADPH-generating system) is given as 25%.
